Measured values from ChEMBL document CHEMBL1201862, “PubChem BioAssay data set” (2004).
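The compound was tested at five concentrations on cells cultured in 96-well plates, with a 48-hour exposure period. GI50: concentration for 50% inhibition of growth.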 Activity calls are given as the source filed them. Rule as the data show it: active = GI50 up to about 1.1 µM and inactive = higher.

What was measured:
Experiment in all cases: NCI-60 cell line screen, 48 h
[1] = system: NCI-H23
[2] = system: IGROV-1
[3] = system: SN12C
[4] = system: HCC 2998
[5] = system: SF-268
[6] = system: HOP-92
[7] = system: A498
[8] = system: SR
[9] = system: SK-MEL-2
[10] = system: SK-OV-3
[11] = system: 786-0
[12] = system: NCI-H226
[13] = system: HL-60
[14] = system: Malme-3M
[15] = system: DLD-1
[16] = system: CCRF-CEM
[17] = system: UACC-62
[18] = system: SNB-78
[19] = system: M14
[20] = system: NCI-H522
[21] = system: SK-MEL-28
[22] = system: ACHN
[23] = system: COLO 205
[24] = system: OVCAR-4
[25] = system: SNB-75
[26] = system: HCT-116
[27] = system: CAKI-1
[28] = system: K562
[29] = system: M19-MEL
[30] = system: LXFL 529
[31] = system: DMS-114
[32] = system: SF-539
[33] = system: RPMI-8226
[34] = system: MOLT-4
[35] = system: DMS-273
[36] = system: UO-31
[37] = system: XF498
[38] = system: HOP-62
[39] = system: NCI-H460
[40] = system: HT-29
[41] = system: KM12
[42] = system: SW-620
[43] = system: UACC-257
[44] = system: EKVX
[45] = system: OVCAR-3
[46] = system: RXF 393
[47] = system: SNB-19
[48] = system: U-251
[49] = system: A549
[50] = system: SF-295
[51] = system: OVCAR-5
[52] = system: KM-20L2
[53] = system: SK-MEL-5
[54] = system: LOX IMVI
[55] = system: OVCAR-8
[56] = system: TK-10
[57] = system: BT-549
[58] = system: MDA-MB-231
[59] = system: MDA-MB-435
[60] = system: MCF7
[61] = system: DU-145
[62] = system: HCT-15
[63] = system: PC-3
[64] = system: NCI/ADR-RES
[65] = system: T47D
[66] = system: MDA-N
[67] = system: Hs-578T

Measured: GI50

COc1ccc(/C=N/Nc2nc(C)c3c(n2)Nc2ccccc2NC3=O)cc1
inactive: [1] > 100 µM | [2] > 100 µM | [3] > 100 µM | [4] > 100 µM | [5] > 100 µM | [6] > 100 µM | [7] > 100 µM | [8] > 100 µM | [9] > 100 µM | [10] > 100 µM | [11] > 100 µM | [12] > 100 µM | [13] > 100 µM | [14] > 100 µM | [15] > 100 µM | [16] > 100 µM | [17] > 100 µM | [18] > 100 µM | [19] > 100 µM | [20] > 100 µM | [21] > 100 µM | [22] > 100 µM | [23] > 100 µM | [24] > 100 µM | [25] 42.6 µM | [26] > 100 µM | [27] > 100 µM | [28] > 100 µM | [29] > 100 µM | [30] 76.7 µM | [31] > 100 µM | [32] > 100 µM | [33] > 100 µM | [34] > 100 µM | [35] > 100 µM | [36] > 100 µM | [37] > 100 µM | [38] > 100 µM

CCOc1ccccc1NC(=O)C1=C(C)NC(C)=C(C(=O)Nc2ccccc2OCC)C1c1ccc2c(c1)OCO2
inactive: [39] 29.1 µM | [1] 23.9 µM | [2] 25 µM | [3] 38.7 µM | [40] 37.2 µM | [4] 10.1 µM | [5] 41.5 µM | [6] 7.36 µM | [7] 34.9 µM | [9] 18.7 µM | [10] 18 µM | [11] 41.3 µM | [12] 22 µM | [41] 11.8 µM | [13] 10.7 µM | [14] 26.2 µM | [15] 22.2 µM | [16] 24.2 µM | [42] 38.4 µM | [43] 22 µM | [18] 24.6 µM | [19] 18.8 µM | [44] 39.6 µM | [20] 9.89 µM | [21] 35.2 µM | [22] 36.8 µM | [45] 17 µM | [46] 16.8 µM | [23] 18.2 µM | [24] 20.8 µM | [47] 95.9 µM | [48] 47.5 µM | [25] 3.53 µM | [49] 28.2 µM | [27] 21.5 µM | [50] 21.2 µM | [51] 53.2 µM | [28] 6.01 µM | [29] 30.1 µM | [52] 26.4 µM | [30] 17.9 µM | [31] 16.9 µM | [53] 11.1 µM | [32] 25.5 µM | [54] 34 µM | [33] 17.4 µM | [55] 47.3 µM | [34] 12.1 µM | [36] 21.8 µM | [56] 76.6 µM | [37] 12.8 µM | [38] 37.4 µM

CC(C)(C)N(Cc1ccc2c(c1)OCO2)C(=O)/C=C\[S+]([O-])c1ccccc1 (centres undefined)
inactive: [39] 4.19 µM | [57] 2.43 µM | [58] 2.95 µM | [1] 2.27 µM | [2] 3.21 µM | [3] 2.63 µM | [40] 3.23 µM | [4] 4.45 µM | [5] 1.23 µM | [6] 2.29 µM | [59] 2.12 µM | [7] 9.48 µM | [8] 1.44 µM | [9] 3.02 µM | [10] 3.01 µM | [11] 2.25 µM | [12] 2.74 µM | [41] 3.85 µM | [13] 2.11 µM | [14] 1.91 µM | [60] 2.77 µM | [42] 2.07 µM | [43] 3.48 µM | [17] 3.37 µM | [19] 2.28 µM | [61] 2.73 µM | [44] 7.29 µM | [21] 7.89 µM | [22] 3.97 µM | [45] 1.99 µM | [63] 2.5 µM | [46] 1.91 µM | [23] 3.01 µM | [24] 3.1 µM | [47] 7.67 µM | [48] 4.33 µM | [25] 2.99 µM | [26] 2.74 µM | [64] 2.48 µM | [49] 4.6 µM | [27] 4.53 µM | [50] 9.79 µM | [51] 10.7 µM | [28] 2.9 µM | [53] 2.82 µM | [32] 2.3 µM | [54] 1.44 µM | [33] 1.67 µM | [65] 2.56 µM | [66] 2.4 µM | [55] 2.03 µM | [34] 2.3 µM | [36] 2.19 µM | [56] 4.55 µM | [38] 4.88 µM | [67] 2.33 µM
active: [16] 0.83 µM | [20] 0.516 µM
2650 nM: [62]
